Values joined by “and” are separate entries in the source; they are usually repeats but may differ in a detail not shown here. Identical values can stand only once. Like-named read-outs stand apart in the source and are kept apart here.
Assays:
[1] = tested on: Human neural stem cells (hNSCs); assay: Neuronal differentiation of human neural stem cells (TUJ-1 staining), concentration response and combination index; format: cell-based
Experimental: Mitogen-free test media with a positive control for neuronal differentiation was used along with basal media without growth factors as a negative control.
To determine the most efficacious dose and dose ratio of D-cycloserine in combination with pindolol or (S)-(−)-pindolol for future preclinical and clinical studies, dose ranging studies were conducted examining synergy for neurogenesis. […] The pindolol or (S)-(−)-pindolol concentrations were varied based on the respective ratios tested. Individual dose response curves were prepared for each concentration ratio as previously described with cells stained with TUJ-1 antibody for the detection of neuronal differentiation.
The presence of synergy was determined by use of a combination index (CI). […] The CI is a quantitative measure of the nature of drug interactions, comparing the EC50's of two compounds, when each is assayed alone, to the EC50 of each compound when assayed in combination. The combination index (CI) is equal to the following formula: […]
where C1 and C2 are the concentrations of a first and a second compound, respectively, resulting in 50% activity in neuronal differentiation when assayed in combination; and IC1 and IC2 are the concentrations of each compound resulting in 50% activity when assayed independently.

mGluR2 = mGluR2 (Homo sapiens, UniProt Q14416); details: read-out: IC50 against mGluR2; cited from earlier work
[2] = tested on: Group I or Group III receptors; details: at sub-mM concentrations; cited from earlier work
mGluR3 = mGluR3 (Homo sapiens, UniProt Q14832); details: read-out: IC50 against mGluR3; cited from earlier work
human mGlu2 = human mGlu2 (Homo sapiens, UniProt Q14416); details: in vitro; low nanomolar range; read-out: EC50 against human mGlu2 receptor; cited from earlier work
human mGlu3 = human mGlu3 (Homo sapiens, UniProt Q14832); details: in vitro; low nanomolar range; read-out: EC50 against human mGlu3 receptor; cited from earlier work
[3] = tested on: KA, AMPA, and NMDA iGlu receptors; details: cited from earlier work
[4] = Homo sapiens, Neural stem cell, agent run independently, % of neuronal positive control, basal media subtracted, figure legends, read-out: EC50 when used alone, neuronal differentiation

Chain of mGluR3 (Q14832 23-879): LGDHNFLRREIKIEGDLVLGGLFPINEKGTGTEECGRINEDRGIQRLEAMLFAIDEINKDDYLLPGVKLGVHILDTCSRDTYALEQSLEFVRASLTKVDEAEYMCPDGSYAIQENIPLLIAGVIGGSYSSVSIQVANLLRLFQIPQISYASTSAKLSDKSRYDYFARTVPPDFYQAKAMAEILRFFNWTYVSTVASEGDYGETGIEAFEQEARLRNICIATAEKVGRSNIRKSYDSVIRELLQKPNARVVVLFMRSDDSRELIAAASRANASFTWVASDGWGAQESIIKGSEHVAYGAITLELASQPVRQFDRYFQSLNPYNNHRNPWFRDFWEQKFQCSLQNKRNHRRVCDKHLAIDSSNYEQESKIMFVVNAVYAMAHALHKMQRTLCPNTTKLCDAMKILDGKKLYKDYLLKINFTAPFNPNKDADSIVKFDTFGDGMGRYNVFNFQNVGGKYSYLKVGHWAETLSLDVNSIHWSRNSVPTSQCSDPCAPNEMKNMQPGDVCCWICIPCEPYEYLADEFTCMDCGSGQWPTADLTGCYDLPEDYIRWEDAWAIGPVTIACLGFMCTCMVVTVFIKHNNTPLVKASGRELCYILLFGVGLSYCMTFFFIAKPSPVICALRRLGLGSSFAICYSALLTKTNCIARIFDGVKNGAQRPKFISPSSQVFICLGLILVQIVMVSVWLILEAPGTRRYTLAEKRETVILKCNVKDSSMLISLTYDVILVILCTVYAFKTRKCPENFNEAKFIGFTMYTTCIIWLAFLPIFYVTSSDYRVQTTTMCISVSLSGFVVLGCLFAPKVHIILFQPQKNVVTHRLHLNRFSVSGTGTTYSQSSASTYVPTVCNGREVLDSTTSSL
Chain of human mGlu3 (Q14832 23-879): as above
Chain of mGluR2 (Q14416 19-872): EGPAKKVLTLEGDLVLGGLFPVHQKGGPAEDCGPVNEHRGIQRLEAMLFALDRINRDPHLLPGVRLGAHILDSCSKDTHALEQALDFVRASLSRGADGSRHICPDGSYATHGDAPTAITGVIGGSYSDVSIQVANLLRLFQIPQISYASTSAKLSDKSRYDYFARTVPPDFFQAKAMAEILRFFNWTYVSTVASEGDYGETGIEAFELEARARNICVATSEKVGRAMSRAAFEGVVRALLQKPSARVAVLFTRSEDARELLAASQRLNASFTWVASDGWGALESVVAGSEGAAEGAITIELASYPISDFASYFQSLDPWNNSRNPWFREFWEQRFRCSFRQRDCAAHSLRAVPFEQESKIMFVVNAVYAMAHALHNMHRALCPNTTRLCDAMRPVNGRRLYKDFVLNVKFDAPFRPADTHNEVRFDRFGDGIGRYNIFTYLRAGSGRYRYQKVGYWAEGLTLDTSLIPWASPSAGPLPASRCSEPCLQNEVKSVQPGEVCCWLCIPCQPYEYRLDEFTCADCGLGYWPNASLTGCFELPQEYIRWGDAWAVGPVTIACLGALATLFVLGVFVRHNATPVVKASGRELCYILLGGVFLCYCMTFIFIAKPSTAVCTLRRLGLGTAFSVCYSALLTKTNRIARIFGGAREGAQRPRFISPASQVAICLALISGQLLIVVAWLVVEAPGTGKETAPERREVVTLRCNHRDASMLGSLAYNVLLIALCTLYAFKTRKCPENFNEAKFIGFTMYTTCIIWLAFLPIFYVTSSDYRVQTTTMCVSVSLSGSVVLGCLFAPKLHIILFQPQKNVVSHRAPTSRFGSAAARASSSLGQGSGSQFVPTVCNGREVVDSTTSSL
Chain of human mGlu2 (Q14416 19-872): as above

In the case of `NC(=O)C[S+]([O-])C(c1ccccc1)c1ccccc1` (centres unmarked) [modafinil], the EC50 ([1]; Homo sapiens, Neural stem cell, read-out: EC50 when used alone, neuronal differentiation) is reported as 11 µM.
Work on `CC(CCc1ccccc1)NCC(O)c1ccc(O)c(C(N)=O)c1` (centres unmarked) [labetalol] yielded an EC50 [1, 4] of 5.5 µM.
For `CC(C)NC[C@H](O)COc1cccc2[nH]ccc12` [(S)-(−)-Pindolol], the EC50 ([1]; Table 2, (S)-(−)-pindolol alone, run with the ratio of that row, read-out: Solo EC50's (S)-(−)-Pindolol) was 2.8 µM and 1.82 µM and 1.78 µM and the EC50 ([1]; agent run independently, % of neuronal positive control, basal media subtracted, figure legends, read-out: EC50 when used alone, neuronal differentiation) was 1.8 µM.
In the case of `NC1(C(=O)O)CCc2cc(P(=O)(O)O)ccc21` (racemic) [APICA, (RS)-1-amino-5-phosphonoindan-1-carboxylic acid], the IC50 (mGluR2) is listed as ~30 µM, the “activity against Group I or Group III receptors” value [2] is listed as “no appreciable activity” and the IC50 (mGluR3) is listed as ~30 µM.
`CC(=O)N[C@@H](CS)C(=O)O` [N-acetyl-L-cysteine] gave an EC50 [1, 4] of 114 µM.
With `CC(C)NCC(O)COc1cccc2[nH]ccc12` (centres unmarked) [Pindolol] the EC50 ([1]; Homo sapiens, Neural stem cell, Table 1, pindolol alone, run with the ratio of that row, read-out: Solo EC50's Pindolol) was 1.43 µM, the EC50 [1, 4] was 1.4 µM and the EC50 ([1]; Table 1, pindolol alone, run with the ratio of that row, read-out: Solo EC50's Pindolol) was 1.32 µM and 1.98 µM and 1.65 µM.
Work on `CCC(=O)c1c(O)cc(O)cc1O` [flopropione] yielded an EC50 [1, 4] of 16.6 µM.
For `N[C@@]1(C(=O)O)CO[C@H]2[C@H](C(=O)O)[C@H]21` [LY379268, (−)-2-Oxa-4-aminobicyclohexane-4,6-dicarboxylic acid], the EC50 (human mGlu2) is listed as < 0.01 µM and the EC50 (human mGlu3) is listed as < 0.01 µM.
Compound `CC(C)(C)NCC(O)COc1cccc2c1CC(O)C(O)C2` (centres unmarked) [nadolol] has an EC50 [1, 4] of 6.7 µM.
`Nc1nc2ncc(CNc3ccc(C(=O)N[C@@H](CCC(=O)O)C(=O)O)cc3)nc2c(=O)[nH]1` [folic acid] showed an EC50 [1, 4] of 1.09 µM.
Compound `CC1(C)O[C@@H]2[C@@H](CO[C@@]3(COS(N)(=O)=O)OC(C)(C)O[C@@H]23)O1` [topiramate] has an EC50 [1, 4] of 7.1 µM.
For `N[C@](CC1c2ccccc2Oc2ccccc21)(C(=O)O)[C@H]1C[C@@H]1C(=O)O` [LY341495, (2S)-2-amino-2-(1S,2S-2-carboxycycloprop-1-yl)-3-(xanth-9-yl) propanoic acid], the “activity against KA, AMPA, and NMDA iGlu receptors” value [3] is given as “substantially inactive”.
For `N[C@@H]1CONC1=O` [D-cycloserine, (4R)-4-amino-1,2-oxazolidin-3-one], the EC50 ([1]; Homo sapiens, Neural stem cell, Table 1, D-cycloserine alone, run with the ratio of that row, read-out: Solo EC50's D-cycloserine) was 7.91 µM, the EC50 ([1]; Homo sapiens, Neural stem cell, Table 2, D-cycloserine alone, run with the ratio of that row, read-out: Solo EC50's D-cycloserine) was 5.62 µM and the EC50 ([1]; Table 1, D-cycloserine alone, run with the ratio of that row, read-out: Solo EC50's D-cycloserine) was 8.48 µM and 7.41 µM. The EC50 ([1]; Table 2, D-cycloserine alone, run with the ratio of that row, read-out: Solo EC50's D-cycloserine) was 8.48 µM.
With `COCCOC(=O)C1=C(C)NC(C)=C(C(=O)OC(C)C)C1c1cccc([N+](=O)[O-])c1` (centres unmarked) [nimodipine] the EC50 [1, 4] was 100 µM.

— patent US20100216805A1, “MODULATION OF NEUROGENESIS USING D-CYCLOSERINE COMBINATIONS” (BrainCells, Inc., priority 2009, published 2010)
